Reference: patent US20260297081A1, “COMPOUNDS AND METHODS OF TREATING CANCERS” (Cullgen Inc., priority 2023, published 2026)

Tests used:
[1] = system: MCF7 cells; experiment: Anti-proliferation (viability) of MCF7 cells (Table 7, FIG. 2B); assay type: cell-based; details: Homo sapiens, MCF7, MCF7 cells, 3-6 days, 10-point serial dilution; read-out: GI IC50 in MCF-7
[2] = target: CDK4 (Homo sapiens, UniProt P11802+Q16531); experiment: HiBiT detection of HiBiT-tagged CDK4 protein level in MCF7 cells, 16 hours (Table 8); assay type: cell-based; set-up: expressed in transfected cells; host or cells: MCF7; details: MCF7 cells stably expressing HiBiT tagged target proteins; for activity at 0.01 µM: 10 nM, read-out: % CDK4 Relative Level (10 nM); for activity at 0.1 µM: 100 nM, read-out: % CDK4 Relative Level (100 nM)
Chain of CDK4 (P11802 whole entry): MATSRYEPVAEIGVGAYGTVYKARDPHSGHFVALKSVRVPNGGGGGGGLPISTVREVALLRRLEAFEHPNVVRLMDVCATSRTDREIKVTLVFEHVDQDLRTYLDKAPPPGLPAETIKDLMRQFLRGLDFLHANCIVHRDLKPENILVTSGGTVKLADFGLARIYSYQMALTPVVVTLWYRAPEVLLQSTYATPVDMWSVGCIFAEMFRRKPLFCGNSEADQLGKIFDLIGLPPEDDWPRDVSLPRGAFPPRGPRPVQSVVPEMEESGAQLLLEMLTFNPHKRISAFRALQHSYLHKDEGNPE
Chain of CDK4 (P24385 whole entry partner): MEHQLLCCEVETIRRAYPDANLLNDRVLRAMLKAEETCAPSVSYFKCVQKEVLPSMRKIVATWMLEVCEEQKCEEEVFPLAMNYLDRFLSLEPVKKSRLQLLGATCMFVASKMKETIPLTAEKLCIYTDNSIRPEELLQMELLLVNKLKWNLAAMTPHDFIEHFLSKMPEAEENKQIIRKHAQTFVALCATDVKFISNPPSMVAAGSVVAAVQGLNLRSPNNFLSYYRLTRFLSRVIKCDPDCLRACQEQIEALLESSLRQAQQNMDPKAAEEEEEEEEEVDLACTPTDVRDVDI
Chain of CDK4 (Q16531 2-1140 limits assumed): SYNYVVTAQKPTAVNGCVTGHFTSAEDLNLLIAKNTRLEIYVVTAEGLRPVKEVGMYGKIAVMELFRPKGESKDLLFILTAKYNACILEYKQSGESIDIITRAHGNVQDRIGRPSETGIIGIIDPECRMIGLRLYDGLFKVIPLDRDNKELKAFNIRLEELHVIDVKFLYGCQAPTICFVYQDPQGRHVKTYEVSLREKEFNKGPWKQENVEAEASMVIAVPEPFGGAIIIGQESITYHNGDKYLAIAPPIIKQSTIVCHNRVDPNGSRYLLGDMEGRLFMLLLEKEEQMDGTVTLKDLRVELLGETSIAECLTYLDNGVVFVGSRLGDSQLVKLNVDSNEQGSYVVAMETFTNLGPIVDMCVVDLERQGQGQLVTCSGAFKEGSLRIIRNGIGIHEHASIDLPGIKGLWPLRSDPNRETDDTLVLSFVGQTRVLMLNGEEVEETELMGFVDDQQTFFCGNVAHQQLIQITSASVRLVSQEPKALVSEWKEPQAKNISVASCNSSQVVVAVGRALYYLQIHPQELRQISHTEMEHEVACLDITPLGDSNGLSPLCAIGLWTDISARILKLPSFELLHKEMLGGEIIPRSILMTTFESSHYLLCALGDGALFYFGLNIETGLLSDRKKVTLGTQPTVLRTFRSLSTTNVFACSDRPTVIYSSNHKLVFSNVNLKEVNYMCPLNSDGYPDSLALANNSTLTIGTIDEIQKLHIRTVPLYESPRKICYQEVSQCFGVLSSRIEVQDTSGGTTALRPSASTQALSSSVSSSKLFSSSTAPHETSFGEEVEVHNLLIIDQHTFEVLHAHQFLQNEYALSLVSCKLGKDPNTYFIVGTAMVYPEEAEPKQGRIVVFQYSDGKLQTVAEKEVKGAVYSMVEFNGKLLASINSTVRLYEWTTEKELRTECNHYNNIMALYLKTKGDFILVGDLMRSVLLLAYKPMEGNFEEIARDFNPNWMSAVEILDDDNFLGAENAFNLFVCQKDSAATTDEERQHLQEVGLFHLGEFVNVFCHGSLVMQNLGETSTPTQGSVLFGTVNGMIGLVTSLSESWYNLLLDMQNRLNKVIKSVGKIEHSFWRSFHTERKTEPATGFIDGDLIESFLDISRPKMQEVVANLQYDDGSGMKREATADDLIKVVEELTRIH
Description: HiBiT detection system quantitatively measures total amounts of HiBiT-tagged proteins using a luminescent based method. MCF7 cells stably expressing HiBiT tagged target proteins were treated with heterobifunctional compounds at indicated concentrations for 16 hours, then lysed with Nano-Glo HiBiT Lytic detection reagents.

IC50 [1]	activity at 0.01 µM [2]	activity at 0.1 µM [2]	Structure (SMILES)
< 50 nM	55 to 85%	55 to 85%	CC(=O)c1c(C)c2cnc(Nc3ccc(N4CCN(C(C)CC(=O)N5CC6(CC(Nc7nc(NC(C)C)ccc7C(=O)Nc7ccc(N(C)C)nn7)C6)C5)CC4)cn3)nc2n(C2CCCC2)c1=O (stereo not drawn) [CPD-368, 2-((2-(3-(4-(6-((6-acetyl-8-cyclopentyl-5-methyl-7-oxo-7,8-dihydropyrido[2,3-d]pyrimidin-2-yl)amino)pyridin-3-yl)piperazin-1-yl)butanoyl)-2-azaspiro[3.3]heptan-6-yl)amino)-N-(6-(dimethylamino)pyridazin-3-yl)-6-(isopropylamino)nicotinamide]
> 100 nM	55 to 85%	55 to 85%	CNc1ccc(C(=O)Nc2ccc(N(C)C)nn2)c(NCCCC(=O)N2CCN(Cc3ccc(Nc4ncc(F)c(-c5cc(F)c6nc(C)n(C(C)C)c6c5)n4)nc3)CC2)n1 [CPD-601, N-(6-(dimethylamino)pyridazin-3-yl)-2-((4-(4-((6-((5-fluoro-4-(4-fluoro-1-isopropyl-2-methyl-1H-benzo[d]imidazol-6-yl)pyrimidin-2-yl)amino)pyridin-3-yl)methyl)piperazin-1-yl)-4-oxobutyl)amino)-6-(methylamino)nicotinamide]
< 50 nM	55 to 85%	55 to 85%	CC(=O)c1c(C)c2cnc(Nc3ccc(CN4CCN(CC(=O)N(C)C5CC6(CC(Nc7nc(NC(C)C)ccc7C(=O)Nc7ccc(N(C)C)nn7)C6)C5)CC4)cn3)nc2n(C2CCCC2)c1=O (stereo not drawn) [CPD-594, 2-((6-(2-(4-((6-((6-acetyl-8-cyclopentyl-5-methyl-7-oxo-7,8-dihydropyrido[2,3-d]pyrimidin-2-yl)amino)pyridin-3-yl)methyl)piperazin-1-yl)-N-methylacetamido)spiro[3.3]heptan-2-yl)amino)-N-(6-(dimethylamino)pyridazin-3-yl)-6-(isopropylamino)nicotinamide]
< 50 nM	55 to 85%	55 to 85%	CCc1ccc(C(=O)Nc2ccc(N(C)C)nn2)c(NC2CC3(CC(NC(=O)CN4CCN(Cc5ccc(Nc6ncc7c(C)c(C(C)=O)c(=O)n(C8CCCC8)c7n6)nc5)CC4)C3)C2)n1 (stereo not drawn) [CPD-578, 2-((6-(2-(4-((6-((6-acetyl-8-cyclopentyl-5-methyl-7-oxo-7,8-dihydropyrido[2,3-d]pyrimidin-2-yl)amino)pyridin-3-yl)methyl)piperazin-1-yl)acetamido)spiro[3.3]heptan-2-yl)amino)-N-(6-(dimethylamino)pyridazin-3-yl)-6-ethylnicotinamide]
< 50 nM	55 to 85%	55 to 85%	CC(=O)c1c(C)c2cnc(Nc3ccc(N4CCN(C5CCN(C(=O)C67CC(Nc8nc(C(C)C)ccc8C(=O)Nc8ccc(N(C)C)nn8)(C6)C7)C5)CC4)cn3)nc2n(C2CCCC2)c1=O (stereo not drawn) [CPD-580, 2-((3-(3-(4-(6-((6-acetyl-8-cyclopentyl-5-methyl-7-oxo-7,8-dihydropyrido[2,3-d]pyrimidin-2-yl)amino)pyridin-3-yl)piperazin-1-yl)pyrrolidine-1-carbonyl)bicyclo[1.1.1]pentan-1-yl)amino)-N-(6-(dimethylamino)pyridazin-3-yl)-6-isopropylnicotinamide]
< 50 nM	55 to 85%	55 to 85%	CC(=O)c1c(C)c2cnc(Nc3ccc(N4CCN(C5CCN(C(=O)C67CC(Nc8nc(NC(C)C)ccc8C(=O)Nc8cc(C)on8)(C6)C7)C5)CC4)cn3)nc2n(C2CCCC2)c1=O (stereo not drawn) [CPD-591, 2-((3-(3-(4-(6-((6-acetyl-8-cyclopentyl-5-methyl-7-oxo-7,8-dihydropyrido[2,3-d]pyrimidin-2-yl)amino)pyridin-3-yl)piperazin-1-yl)pyrrolidine-1-carbonyl)bicyclo[1.1.1]pentan-1-yl)amino)-6-(isopropylamino)-N-(5-methylisoxazol-3-yl)nicotinamide]
< 50 nM	55 to 85%	55 to 85%	CC(=O)c1c(C)c2cnc(Nc3ccc(CC4CCN(CC(=O)NC5CC6(C5)CC(Nc5nc(NC(C)C)ccc5C(=O)Nc5ccc(N(C)C)nn5)C6)CC4)cn3)nc2n(C2CCCC2)c1=O (stereo not drawn) [CPD-599, 2-((6-(2-(4-((6-((6-acetyl-8-cyclopentyl-5-methyl-7-oxo-7,8-dihydropyrido[2,3-d]pyrimidin-2-yl)amino)pyridin-3-yl)methyl)piperidin-1-yl)acetamido)spiro[3.3]heptan-2-yl)amino)-N-(6-(dimethylamino)pyridazin-3-yl)-6-(isopropylamino)nicotinamide]
< 50 nM	55 to 85%	55 to 85%	CC(=O)c1c(C)c2cnc(Nc3ccc(N4CCN(C5CCN(C(=O)C67CC(Nc8nc(NC(C)C)ccc8C(=O)Nc8cn(C)c(C9CC9)n8)(C6)C7)C5)CC4)cn3)nc2n(C2CCCC2)c1=O (stereo not drawn) [CPD-588, 2-((3-(3-(4-(6-((6-acetyl-8-cyclopentyl-5-methyl-7-oxo-7,8-dihydropyrido[2,3-d]pyrimidin-2-yl)amino)pyridin-3-yl)piperazin-1-yl)pyrrolidine-1-carbonyl)bicyclo[1.1.1]pentan-1-yl)amino)-N-(2-cyclopropyl-1-methyl-1H-imidazol-4-yl)-6-(isopropylamino)nicotinamide]
< 50 nM	55 to 85%	55 to 85%	CC(=O)c1c(C)c2cnc(Nc3ccc(CN4CCN(CC(=O)NC5CC6(C5)CC(Nc5nc(C(C)C)ccc5C(=O)Nc5ccc(N(C)C)nn5)C6)CC4)cn3)nc2n(C2CCCC2)c1=O (stereo not drawn) [CPD-579, 2-((6-(2-(4-((6-((6-acetyl-8-cyclopentyl-5-methyl-7-oxo-7,8-dihydropyrido[2,3-d]pyrimidin-2-yl)amino)pyridin-3-yl)methyl)piperazin-1-yl)acetamido)spiro[3.3]heptan-2-yl)amino)-N-(6-(dimethylamino)pyridazin-3-yl)-6-isopropylnicotinamide]
> 100 nM	55 to 85%	55 to 85%	CNc1ccc(C(=O)Nc2ccc(N(C)C)nn2)c(NCCCCCCCNC(=O)CN2CCN(c3ccc(Nc4ncc5cc(C(=O)N(C)C)n(C6CCCC6)c5n4)nc3)CC2)n1 [CPD-629, 7-cyclopentyl-2-((5-(4-(2-((7-((3-((6-(dimethylamino)pyridazin-3-yl)carbamoyl)-6-(methylamino)pyridin-2-yl)amino)heptyl)amino)-2-oxoethyl)piperazin-1-yl)pyridin-2-yl)amino)-N,N-dimethyl-7H-pyrrolo[2,3-d]pyrimidine-6-carboxamide]
> 100 nM	55 to 85%	55 to 85%	CNc1ccc(C(=O)Nc2ccc(N(C)C)nn2)c(NCCCNC(=O)CN2CCN(c3ccc(Nc4ncc5cc(C(=O)N(C)C)n(C6CCCC6)c5n4)nc3)CC2)n1 [CPD-625, 7-cyclopentyl-2-((5-(4-(2-((3-((3-((6-(dimethylamino)pyridazin-3-yl)carbamoyl)-6-(methylamino)pyridin-2-yl)amino)propyl)amino)-2-oxoethyl)piperazin-1-yl)pyridin-2-yl)amino)-N,N-dimethyl-7H-pyrrolo[2,3-d]pyrimidine-6-carboxamide]
